System: subjects with TRD
Assay: Adverse events (TEAEs, SAEs) in the TRD study
Format: in vivo, human
Settings: 60 mg (n = 35)
Excerpt: The definitions of an AE and SAE can be found in Section F. AEs were reported by the subject (or, when appropriate, by a caregiver, surrogate, or the subject's legally authorized representative). The Investigator and any designees were responsible for detecting, documenting, and recording events that meet the definition of an AE or SAE and remained responsible for following up AEs that were serious, considered related to the study treatment or study procedures, or that caused the subject to discontinue from the study.
All AEs were collected from the signing of the ICF until the second follow-up visit (Day 15) at the time points specified in the Schedule of Activities (Section C). Medical occurrences that began before the start of study treatment but after obtaining informed consent were recorded on the Medical History/Current Medical Conditions section of the CRF, not the AE section. All SAEs were recorded and reported to the Sponsor or designee within 24 hours as indicated in Section F. The Investigator submitted any updated SAE data to the Sponsor or designee within 24 hours of it being available. Investigators were not obligated to actively seek AE or SAE information after the conclusion of study participation. However, if the Investigator learns of any SAE, including a death, at any time after a subject has been discharged from the study, and he/she considers the event to be reasonably related to the study treatment or study participation, the Investigator must promptly notify the Sponsor or designee. The method of recording, evaluating, and assessing the causality of AEs and SAEs and the procedures for completing and transmitting SAE reports are provided in Section F.
An AE is any untoward medical occurrence in a patient or subject, temporally associated with the use of study treatment, whether or not considered related to the study treatment. An AE can therefore be any unfavorable and unintended sign (including an abnormal laboratory finding), symptom, or disease (new or exacerbated) temporally associated with the use of study treatment.
If an event is not an AE per the definition above, then it cannot be an SAE even if serious conditions are met (e.g., hospitalization for signs/symptoms of the disease under study). A Serious Adverse Event (SAE) is defined as any untoward medical occurrence that, at any dose: a) results in death; b) is life-threatening; c) requires inpatient hospitalization or prolongation of existing hospitalization; d) results in persistent disability/incapacity; or e) is a congenital anomaly/birth defect. The term “life-threatening” in the definition of “serious” refers to an event in which the subject was at risk of death at the time of the event. […] In general, hospitalization signifies that the subject has been detained (usually involving at least an overnight stay) at the hospital or emergency ward for observation and/or treatment that would not have been appropriate in the physician's office or outpatient setting. Complications that occur during hospitalization are AEs. If a complication prolongs hospitalization or fulfills any other serious criteria, the event is serious. When in doubt as to whether “hospitalization” occurred or was necessary, the AE should be considered serious. […] The term disability means a substantial disruption of a person's ability to conduct normal life functions.
(MedDRA; Version 23.0 or higher). Treatment-emergent adverse events (TEAEs) are AEs with onset or worsening after the start of study treatment. The AE summaries will be primarily based on TEAEs. The number and percentage of subjects with TEAEs will be summarized by treatment group, system organ class, and preferred term for all TEAEs, treatment-related TEAEs, SAEs, serious TEAEs, severe TEAEs, TEAEs of special interest, and all TEAEs leading to study drug discontinuation. All TEAEs will be further summarized by maximum severity and causality. The TEAEs of special interest will be identified in the SAP. […]

SMILES: CN[C@@]1(c2ccccc2Cl)CCCCC1=O [PCN 101]
- Number of subjects with any treatment-emergent adverse events: 18
- Number of treatment-emergent adverse events: 53
- Subjects with any treatment-emergent adverse events: (%) of subjects: (51)
- TEAE PT Alopecia: (%) of subjects: (3)
- TEAE PT Alopecia: number of subjects: 1
- TEAE PT Aversion: (%) of subjects: (0)
- TEAE PT Aversion: number of subjects: 0
- TEAE PT Balance disorder: (%) of subjects: (0)
- TEAE PT Balance disorder: number of subjects: 0
- TEAE PT Blood pressure increased: (%) of subjects: (3)
- TEAE PT Blood pressure increased: number of subjects: 1
- TEAE PT Bruxism: (%) of subjects: (0)
- TEAE PT Bruxism: number of subjects: 0
- TEAE PT Confusional state: (%) of subjects: (3)
- TEAE PT Confusional state: number of subjects: 1
- TEAE PT Defect conduction intraventricular: (%) of subjects: (3)
- TEAE PT Defect conduction intraventricular: number of subjects: 1
- TEAE PT Derealisation: (%) of subjects: (9)
- TEAE PT Derealisation: number of subjects: 3
- TEAE PT Diarrhoea: (%) of subjects: (0)
- TEAE PT Diarrhoea: number of subjects: 0
- TEAE PT Dissociation: (%) of subjects: (0)
- TEAE PT Dissociation: number of subjects: 0
- TEAE PT Dizziness: (%) of subjects: (20)
- TEAE PT Dizziness: number of subjects: 7
- TEAE PT Dry mouth: (%) of subjects: (3)
- TEAE PT Dry mouth: number of subjects: 1
- TEAE PT Dysarthria: (%) of subjects: (6)
- TEAE PT Dysarthria: number of subjects: 2
- TEAE PT Dyspnoea exertional: (%) of subjects: (0)
- TEAE PT Dyspnoea exertional: number of subjects: 0
- TEAE PT Energy increased: (%) of subjects: (3)
- TEAE PT Energy increased: number of subjects: 1
- TEAE PT Euphoric mood: (%) of subjects: (3)
- TEAE PT Euphoric mood: number of subjects: 1
- TEAE PT Fatigue: (%) of subjects: (3)
- TEAE PT Fatigue: number of subjects: 1
- TEAE PT Feeling abnormal: (%) of subjects: (3)
- TEAE PT Feeling abnormal: number of subjects: 1
- TEAE PT Feeling drunk: (%) of subjects: (6)
- TEAE PT Feeling drunk: number of subjects: 2
- TEAE PT Haematuria: (%) of subjects: (0)
- TEAE PT Haematuria: number of subjects: 0
- TEAE PT Headache: (%) of subjects: (6)
- TEAE PT Headache: number of subjects: 2
- TEAE PT Hyperacusis: (%) of subjects: (0)
- TEAE PT Hyperacusis: number of subjects: 0
- TEAE PT Hyperhidrosis: (%) of subjects: (0)
- TEAE PT Hyperhidrosis: number of subjects: 0
- TEAE PT Hyperphagia: (%) of subjects: (3)
- TEAE PT Hyperphagia: number of subjects: 1
- TEAE PT Hypoaesthesia oral: (%) of subjects: (3)
- TEAE PT Hypoaesthesia oral: number of subjects: 1
- TEAE PT Hypoaesthesia: (%) of subjects: (0)
- TEAE PT Hypoaesthesia: number of subjects: 0
- TEAE PT Increased appetite: (%) of subjects: (3)
- TEAE PT Increased appetite: number of subjects: 1
- TEAE PT Influenza like illness: (%) of subjects: (0)
- TEAE PT Influenza like illness: number of subjects: 0
- TEAE PT Infusion site hypoaesthesia: (%) of subjects: (3)
- TEAE PT Infusion site hypoaesthesia: number of subjects: 1
- TEAE PT Left ventricular hypertrophy: (%) of subjects: (3)
- TEAE PT Left ventricular hypertrophy: number of subjects: 1
- TEAE PT Lethargy: (%) of subjects: (3)
- TEAE PT Lethargy: number of subjects: 1
- TEAE PT Limb discomfort: (%) of subjects: (0)
- TEAE PT Limb discomfort: number of subjects: 0
- TEAE PT Logorrhoea: (%) of subjects: (0)
- TEAE PT Logorrhoea: number of subjects: 0
- TEAE PT Memory impairment: (%) of subjects: (0)
- TEAE PT Memory impairment: number of subjects: 0
- TEAE PT Muscle strain: (%) of subjects: (0)
- TEAE PT Muscle strain: number of subjects: 0
- TEAE PT Muscular weakness: (%) of subjects: (3)
- TEAE PT Muscular weakness: number of subjects: 1
- TEAE PT Nausea: (%) of subjects: (9)
- TEAE PT Nausea: number of subjects: 3
- TEAE PT Paraesthesia: (%) of subjects: (6)
- TEAE PT Paraesthesia: number of subjects: 2
- TEAE PT Rhinorrhoea: (%) of subjects: (0)
- TEAE PT Rhinorrhoea: number of subjects: 0
- TEAE PT Sedation: (%) of subjects: (3)
- TEAE PT Sedation: number of subjects: 1
- TEAE PT Sensory disturbance: (%) of subjects: (0)
- TEAE PT Sensory disturbance: number of subjects: 0
- TEAE PT Sinusitis: (%) of subjects: (0)
- TEAE PT Sinusitis: number of subjects: 0
- TEAE PT Skin abrasion: (%) of subjects: (3)
- TEAE PT Skin abrasion: number of subjects: 1
- TEAE PT Slow speech: (%) of subjects: 0)
- TEAE PT Slow speech: number of subjects: 0
- TEAE PT Smoke sensitivity: (%) of subjects: (3)
- TEAE PT Smoke sensitivity: number of subjects: 1
- TEAE PT Somnolence: (%) of subjects: (11)
- TEAE PT Somnolence: number of subjects: 4
- TEAE PT Tachycardia: (%) of subjects: (0)
- TEAE PT Tachycardia: number of subjects: 0
- TEAE PT Throat tightness: (%) of subjects: (3)
- TEAE PT Throat tightness: number of subjects: 1
- TEAE PT Time perception altered: (%) of subjects: (3)
- TEAE PT Time perception altered: number of subjects: 1
- TEAE PT Urinary tract infection: (%) of subjects: (0)
- TEAE PT Urinary tract infection: number of subjects: 0
- TEAE PT Venous injury: (%) of subjects: (0)
- TEAE PT Venous injury: number of subjects: 0
- TEAE PT Vertigo: (%) of subjects: (0)
- TEAE PT Vertigo: number of subjects: 0
- TEAE PT Vessel puncture site erythema: (%) of subjects: (0)
- TEAE PT Vessel puncture site erythema: number of subjects: 0
- TEAE PT Vision blurred: (%) of subjects: (3)
- TEAE PT Vision blurred: number of subjects: 1
- TEAE PT Visual impairment: (%) of subjects: (0)
- TEAE PT Visual impairment: number of subjects: 0
- TEAE SOC Cardiac disorders: (%) of subjects: (6)
- TEAE SOC Cardiac disorders: number of subjects: 2
- TEAE SOC Ear and labyrinth disorders: (%) of subjects: (0)
- TEAE SOC Ear and labyrinth disorders: number of subjects: 0
- TEAE SOC Eye disorders: (%) of subjects: (3)
- TEAE SOC Eye disorders: number of subjects: 1
- TEAE SOC Gastrointestinal disorders: (%) of subjects: (14)
- TEAE SOC Gastrointestinal disorders: number of subjects: 5
- TEAE SOC General disorders and administration site conditions: (%) of subjects: (11)
- TEAE SOC General disorders and administration site conditions: number of subjects: 4
- TEAE SOC Immune system disorders: (%) of subjects: (3)
- TEAE SOC Immune system disorders: number of subjects: 1
- TEAE SOC Infections and infestations: (%) of subjects: (0)
- TEAE SOC Infections and infestations: number of subjects: 0
- TEAE SOC Injury, poisoning and procedural complications: (%) of subjects: (3)
- TEAE SOC Injury, poisoning and procedural complications: number of subjects: 1
- TEAE SOC Investigations: (%) of subjects: (3)
- TEAE SOC Investigations: number of subjects: 1
- TEAE SOC Metabolism and nutrition disorders: (%) of subjects: (3)
- TEAE SOC Metabolism and nutrition disorders: number of subjects: 1
- TEAE SOC Musculoskeletal and connective tissue disorders: (%) of subjects: (3)
- TEAE SOC Musculoskeletal and connective tissue disorders: number of subjects: 1
- TEAE SOC Nervous system disorders: (%) of subjects: (40)
- TEAE SOC Nervous system disorders: number of subjects: 14
- TEAE SOC Psychiatric disorders: (%) of subjects: (14)
- TEAE SOC Psychiatric disorders: number of subjects: 5
- TEAE SOC Renal and urinary disorders: (%) of subjects: (0)
- TEAE SOC Renal and urinary disorders: number of subjects: 0
- TEAE SOC Respiratory, thoracic and mediastinal disorders: (%) of subjects: (3)
- TEAE SOC Respiratory, thoracic and mediastinal disorders: number of subjects: 1
- TEAE SOC Skin and subcutaneous tissue disorders: (%) of subjects: (3)
- TEAE SOC Skin and subcutaneous tissue disorders: number of subjects: 1

From US20260027068A1, “METHODS OF ADM[…]-KETAMINE” (Perception Neuroscience, Inc., priority 2022, published 2026)
